From patent publication US9243221B2, “Compositions and methods of functionally enhanced in vitro cell culture system” (HUREL CORPORATION, priority 2008, dated 2016)
Read-outs that look alike come from different tables or passages of the source.

What was measured:
[1] = system: Cryopreserved human hepatocytes; experiment: Long term accumulation of 4-OH midazolam in culture media of oxygenated hepatocyte co-cultures; format: in vitro ADME; details: in the presence and absence of rifampicin; FIG. 5B
[2] = system: Cryopreserved human hepatocytes
Method: Cryopreserved human hepatocytes are cultured with 3T3-J2 fibroblasts under serum free conditions. Following overnight incubation in high oxygen tension (95% O2, 5% CO2) the cells are exposed to one of the following drugs: antipyrine, buspirone, metoprolol, sildenafil, and timolol.

Row | SMILES | clearance of drugs ([2]; human) | further results
1 | Cc1ncc2n1-c1ccc(Cl)cc1C(c1ccccc1F)=NC2O (stereo not shown) [4-OH midazolam] |  | accumulation of 4-OH midazolam in the culture media [1]: can be detected over 30 hours of culture
2 | Cc1cc(=O)n(-c2ccccc2)n1C [antipyrine] |  | clearance of drugs ([2]; cryopreserved human hepatocytes with 3T3-J2 fibroblasts, serum free, overnight 95% O2, 5% CO2, FIG. 5A): slow clearing
3 | CCCc1nn(C)c2c(=O)[nH]c(-c3cc(S(=O)(=O)N4CCN(C)CC4)ccc3OCC)nc12 [sildenofil, sildenafil] | slow clearing | 
4 | CC(C)(C)NC[C@H](O)COc1nsnc1N1CCOCC1 [timolol] | slow clearing | 
